Test results as given in ChEMBL document CHEMBL1268828, “Synthesis of novel pyrrole and pyrrolo[2,3-d]pyrimidine derivatives bearing sulfonamide moiety for evaluation as anticancer and radiosensitizing agents” (Bioorg Med Chem Lett, 2010).

How the values were obtained:
HepG2 [1] = test: Cytotoxicity against human HepG2 cells assessed as inhibition of cell proliferation after 24 hrs by SRB assay; format: functional, cell-based; settings: HepG2, 24 h
MCF7 [2] = test: Cytotoxicity against human MCF7 cells assessed as inhibition of cell proliferation after 24 hrs by SRB assay; format: functional, cell-based; settings: MCF7, 24 h
HepG2 [3] = test: Anticancer activity against human HepG2 cells assessed as viable cells after 48 hrs at 5 uM by SRB assay relative to control; format: functional; settings: HepG2, 48 h, read-out: Activity
HepG2 [4] = test: Anticancer activity against human HepG2 cells assessed as viable cells after 48 hrs at 25 uM by SRB assay relative to control; format: functional; settings: HepG2, 48 h, read-out: Activity
HepG2 [5] = test: Anticancer activity against human HepG2 cells assessed as viable cells after 48 hrs at 12.5 uM by SRB assay relative to control; format: functional; settings: HepG2, 48 h, read-out: Activity
HepG2 [6] = test: Anticancer activity against 4 Gy gamma-irradiated human HepG2 cells assessed as viable cells after 48 hrs at 25 uM by SRB assay (reference value: 18.73%); format: functional; settings: HepG2, light or radiation study, read-out: Activity
HepG2 [7] = test: Anticancer activity against 4 Gy gamma-irradiated human HepG2 cells assessed as viable cells after 48 hrs at 40 uM by SRB assay (reference value: 18.73%); format: functional; settings: HepG2, light or radiation study, read-out: Activity
HepG2 [8] = test: Anticancer activity against 4 Gy gamma-irradiated human HepG2 cells assessed as viable cells after 48 hrs at 12.5 uM by SRB assay (reference value: 18.73%); format: functional; settings: HepG2, light or radiation study, read-out: Activity
HepG2 [9] = test: Anticancer activity against human HepG2 cells assessed as viable cells after 48 hrs at 40 uM by SRB assay relative to control; format: functional; settings: HepG2, 48 h, read-out: Activity
HepG2 [10] = test: Anticancer activity against 4 Gy gamma-irradiated human HepG2 cells assessed as viable cells after 48 hrs at 5 uM by SRB assay (reference value: 18.73%); format: functional; settings: HepG2, light or radiation study, read-out: Activity
HepG2 [11] = test: Anticancer activity against 4 Gy gamma-irradiated human HepG2 cells assessed as viable cells after 48 hrs at 40 uM by SRB assay (reference value: 21.2%); format: functional; settings: HepG2, light or radiation study, read-out: Activity
HepG2 [12] = test: Anticancer activity against 4 Gy gamma-irradiated human HepG2 cells assessed as viable cells after 48 hrs at 12.5 uM by SRB assay (reference value: 21.2%); format: functional; settings: HepG2, light or radiation study, read-out: Activity
HepG2 [13] = test: Anticancer activity against 4 Gy gamma-irradiated human HepG2 cells assessed as viable cells after 48 hrs at 25 uM by SRB assay (reference value: 21.2%); format: functional; settings: HepG2, light or radiation study, read-out: Activity
HepG2 [14] = test: Anticancer activity against 4 Gy gamma-irradiated human HepG2 cells assessed as viable cells after 48 hrs at 5 uM by SRB assay (reference value: 21.2%); format: functional; settings: HepG2, light or radiation study, read-out: Activity
MCF7 [15] = test: Anticancer activity against human MCF7 cells assessed as viable cells after 48 hrs at 40 uM by SRB assay relative to control; format: functional; settings: MCF7, 48 h, read-out: Activity
MCF7 [16] = test: Anticancer activity against 4 Gy gamma-irradiated human MCF7 cells assessed as viable cells after 48 hrs at 40 uM by SRB assay (reference value: 7.3%); format: functional; settings: MCF7, light or radiation study, read-out: Activity
MCF7 [17] = test: Anticancer activity against human MCF7 cells assessed as viable cells after 48 hrs at 12.5 uM by SRB assay relative to control; format: functional; settings: MCF7, 48 h, read-out: Activity
MCF7 [18] = test: Anticancer activity against human MCF7 cells assessed as viable cells after 48 hrs at 5 uM by SRB assay relative to control; format: functional; settings: MCF7, 48 h, read-out: Activity
MCF7 [19] = test: Anticancer activity against 4 Gy gamma-irradiated human MCF7 cells assessed as viable cells after 48 hrs at 25 uM by SRB assay (reference value: 7.3%); format: functional; settings: MCF7, light or radiation study, read-out: Activity
MCF7 [20] = test: Anticancer activity against 4 Gy gamma-irradiated human MCF7 cells assessed as viable cells after 48 hrs at 5 uM by SRB assay (reference value: 7.3%); format: functional; settings: MCF7, light or radiation study, read-out: Activity
MCF7 [21] = test: Anticancer activity against human MCF7 cells assessed as viable cells after 48 hrs at 25 uM by SRB assay relative to control; format: functional; settings: MCF7, 48 h, read-out: Activity
MCF7 [22] = test: Anticancer activity against 4 Gy gamma-irradiated human MCF7 cells assessed as viable cells after 48 hrs at 12.5 uM by SRB assay (reference value: 7.3%); format: functional; settings: MCF7, light or radiation study, read-out: Activity

Row | Compound | IC50 (HepG2 [1]) [µM] | IC50 (MCF7 [2]) [µM] | also measured
1 | N#Cc1c(-c2ccccc2)cn(-c2ccc(S(=O)(=O)Nc3nccs3)cc2)c1NC(N)=O | 4.02 | 8.05 | –
2 | Nc1nc(=S)[nH]c2c1c(-c1ccccc1)cn2-c1ccc(S(=O)(=O)Nc2ccccn2)cc1 | 4.1 | 3.8 | –
3 | Nc1nc(=O)[nH]c2c1c(-c1ccccc1)cn2-c1ccc(S(=O)(=O)Nc2ccccn2)cc1 | 4.3 | 3.9 | –
4 | Cc1nc2c(c(-c3ccccc3)cn2-c2ccc(S(=O)(=O)Nc3ccccn3)cc2)c(=O)[nH]1 | 3.15 | 5.1 | –
5 | Nc1ncnc2c1c(-c1ccccc1)cn2-c1ccc(S(=O)(=O)Nc2ccccn2)cc1 | 4.09 | 6.34 | –
6 | O=C(CNc1ccc(S(=O)(=O)Nc2ccccn2)cc1)c1ccccc1 | 6.75 | 7.56 | –
7 | N#Cc1c(-c2ccccc2)cn(-c2ccc(S(=O)(=O)Nc3ccccn3)cc2)c1N1C(=O)CCC1=O | 5.36 | 9.93 | –
8 | O=c1[nH]cnc2c1c(-c1ccccc1)cn2-c1ccc(S(=O)(=O)Nc2nccs2)cc1 | 5.3 | 6.21 | –
9 | O=c1[nH]cnc2c1c(-c1ccccc1)cn2-c1ccc(S(=O)(=O)Nc2ccccn2)cc1 | 4.67 | 5.32 | –
10 | N#Cc1c(-c2ccccc2)cn(-c2ccc(S(=O)(=O)Nc3ccccn3)cc2)c1NC(=O)CCC(=O)O | 3.75 | 8.32 | viability at 5 µM (HepG2 [3]): 15.1%; viability at 25 µM (HepG2 [4]): 72%; viability at 12.5 µM (HepG2 [5]): 60.3%; viability at 25 µM (HepG2 [6]): 89.2%; viability at 40 µM (HepG2 [7]): 87.7%; viability at 12.5 µM (HepG2 [8]): 84.4%; viability at 40 µM (HepG2 [9]): 78%; viability at 5 µM (HepG2 [10]): 81.4%
11 | CC(=O)Nc1c(C#N)c(-c2ccccc2)cn1-c1ccc(S(=O)(=O)Nc2ccccn2)cc1 | 3.49 | 11.8 | viability at 40 µM (HepG2 [11]): 82.5%; viability at 5 µM (HepG2 [3]): 30.3%; viability at 25 µM (HepG2 [4]): 62.7%; viability at 12.5 µM (HepG2 [5]): 53.5%; viability at 12.5 µM (HepG2 [12]): 69.5%; viability at 25 µM (HepG2 [13]): 82.5%; viability at 5 µM (HepG2 [14]): 57.4%; viability at 40 µM (HepG2 [9]): 69.9%
12 | CC(=O)Nc1c(C#N)c(-c2ccccc2)cn1-c1ccc(S(=O)(=O)Nc2nccs2)cc1 | 4.02 | 7.24 | –
13 | Nc1nc(=S)[nH]c2c1c(-c1ccccc1)cn2-c1ccc(S(=O)(=O)Nc2nccs2)cc1 | 4.12 | 3.12 | –
14 | N#Cc1c(-c2ccccc2)cn(-c2ccc(S(=O)(=O)Nc3nccs3)cc2)c1N | 5.36 | 3.49 | viability at 40 µM (MCF7 [15]): 72%; viability at 40 µM (MCF7 [16]): 85.8%; viability at 12.5 µM (MCF7 [17]): 42.5%; viability at 5 µM (MCF7 [18]): 11.3%; viability at 25 µM (MCF7 [19]): 82.3%; viability at 5 µM (MCF7 [20]): 41.5%; viability at 25 µM (MCF7 [21]): 71.3%; viability at 12.5 µM (MCF7 [22]): 65.3%
15 | Cc1nc2c(c(-c3ccccc3)cn2-c2ccc(S(=O)(=O)Nc3nccs3)cc2)c(=O)[nH]1 | 3.39 | 5.8 | –
16 | Nc1ncnc2c1c(-c1ccccc1)cn2-c1ccc(S(=O)(=O)Nc2nccs2)cc1 | 4.24 | 6.45 | –
17 | N#Cc1c(-c2ccccc2)cn(-c2ccc(S(=O)(=O)Nc3nccs3)cc2)c1N1C(=O)CCC1=O | 4.56 | 6.71 | –
18 | N#Cc1c(-c2ccccc2)cn(-c2ccc(S(=O)(=O)Nc3nccs3)cc2)c1NC(=O)CCC(=O)O | 3.75 | 9.12 | viability at 40 µM (HepG2 [11]): 79.4%; viability at 5 µM (HepG2 [3]): 25%; viability at 25 µM (HepG2 [4]): 36%; viability at 12.5 µM (HepG2 [5]): 39.6%; viability at 12.5 µM (HepG2 [12]): 72.6%; viability at 25 µM (HepG2 [13]): 71.8%; viability at 5 µM (HepG2 [14]): 60.6%; viability at 40 µM (HepG2 [9]): 49.6%
19 | O=C(CNc1ccc(S(=O)(=O)Nc2nccs2)cc1)c1ccccc1 | 6.78 | 8.89 | –
20 | N#Cc1c(-c2ccccc2)cn(-c2ccc(S(=O)(=O)Nc3ccccn3)cc2)c1NC(N)=O | 4.12 | 7.34 | –
21 | COc1cccc2c1C(=O)c1c(O)c3c(c(O)c1C2=O)C[C@@](O)(C(=O)CO)C[C@@H]3O[C@H]1C[C@H](N)[C@H](O)[C@H](C)O1 [DOXORUBICIN] | 5.23 | – | –
22 | N#Cc1c(-c2ccccc2)cn(-c2ccc(S(=O)(=O)Nc3ccccn3)cc2)c1N | 5.3 | 4.6 | –
23 | Nc1nc(=O)[nH]c2c1c(-c1ccccc1)cn2-c1ccc(S(=O)(=O)Nc2nccs2)cc1 | 3.49 | 8.32 | viability at 40 µM (HepG2 [11]): 81.7%; viability at 5 µM (HepG2 [3]): 22.3%; viability at 25 µM (HepG2 [4]): 63.9%; viability at 12.5 µM (HepG2 [5]): 47.7%; viability at 12.5 µM (HepG2 [12]): 69.2%; viability at 25 µM (HepG2 [13]): 78.3%; viability at 5 µM (HepG2 [14]): 61.7%; viability at 40 µM (HepG2 [9]): 63.6%
